Laboratory results as given in patent US20210315893A1 (Galapagos NV, priority 2017, published 2021).

Target: T1, human GPCR sphingosine 1-phosphate receptor 2 (Homo sapiens, UniProt O95136)
T1 construct: host or cells: CHO
Assay: S1PR2 antagonist Ca2+ flux assay
Format: cell-based
Conditions: antagonist mode, CHO-S1PR2 cells, S1P at EC80, Ca2+ fluorescence; read-out: S1P2 EC50 (nM), S1P2 antagonist EC50
Protocol: Triggering of S1PR2 by administration of Sphingosine-1-phosphate leads to a transient increase in intracellular Ca^2+. The Ca^2+ flux assays are measuring the release of Ca^2+ intracellularly by use of a Ca^2+ sensitive fluorescent dye. The assay is firstly run in agonist mode (incubation of compounds alone) to ensure that the Ca^2+ released measured is not caused by the test compound having an agonistic effect. Then the assay is continued in antagonist mode (Sphingosine-1-Phosphate added to incubated medium containing the test compounds).
CHO cells stably overexpressing human GPCR sphingosine 1-phosphate receptor 2 (CHO-S1PR2 Perkin Elmer; ES-594-A) are seeded from a frozen stock in 384 wells sterile microplates (50 μL; 7,500 cells/well) and are incubated overnight at 37° C. and 5% CO2. The next day cells are washed twice with starvation medium (F-12 Ham's medium containing 0.1% BSA (Fatty acid free: FAF)) and left in 25 μL starvation medium for 1 h at 37° C., 5% CO2. After this starvation cells are incubated with 25 μL buffer containing the Ca^2+-sensitive fluorescent dye (0.5 mg Fluo8+125 mg Allura Red in 100 mL of 1% DMSO, in HBSS+20 mM Hepes+5 mM probenecid). The cells are incubated for an additional 1 h after which 10 μL compounds, diluted in HBSS buffer with 20 mM Hepes and 0.1% BSA (FAF), are added to the cells and intracellular Ca2+ changes are immediately measured by reading fluorescence during 3 min (FDSS/pCELL reader). The ratio of the maximal fluorescence over the background fluorescence before compound injection is used to determine compound response.
After readout of the agonist activity, the plates are incubated for 15 min at 37° C. and 5% CO2. Then, cells are stimulated with 10 μL Sphingosine-1-Phosphate (S1P) (Avanti Polar lipids-860492P) at its EC80 concentration. Intracellular Ca2+ changes are immediately measured by reading fluorescence during 3 min (FDSS/pCELL reader). The ratio of the maximal fluorescence over the background fluorescence before compound injection is used to determine compound response.
The obtained ratio's for agonist and antagonist readout were normalized versus vehicle and EC 100 of S1P ascontrols for agonist mode and versus vehicle and […]. From these normalized data EC50 of the compounds are derived.

T1 sequence (O95136 whole entry): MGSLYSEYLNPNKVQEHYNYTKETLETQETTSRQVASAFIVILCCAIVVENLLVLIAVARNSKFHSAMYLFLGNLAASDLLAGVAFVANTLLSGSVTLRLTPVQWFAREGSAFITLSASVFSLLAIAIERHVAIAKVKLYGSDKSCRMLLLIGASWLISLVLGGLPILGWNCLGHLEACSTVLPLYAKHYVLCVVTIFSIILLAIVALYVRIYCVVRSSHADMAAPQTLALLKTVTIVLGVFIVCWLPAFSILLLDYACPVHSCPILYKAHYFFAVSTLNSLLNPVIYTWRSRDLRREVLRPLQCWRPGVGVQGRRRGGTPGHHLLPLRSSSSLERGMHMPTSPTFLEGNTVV

Row | Compound | EC50 [nM]
1 | O=c1c2ccccc2c(Cc2nc3cc(Cl)c(OC(F)(F)F)cc3[nH]2)nn1C1CCC1 [Compound 26, 4-[[5-chloro-6-(trifluoromethoxy)-1H-benzimidazol-2-yl]methyl]-2-cyclobutyl-phthalazin-1-one] | 889
2 | CC(C)(C)C(=O)Cn1nc(Cc2nc3cc(Cl)c(OC(F)(F)F)cc3[nH]2)c2ccccc2c1=O [Compound 44, 4-[[6-chloro-5-(trifluoromethoxy)-1H-benzimidazol-2-yl]methyl]-2-(3,3-dimethyl-2-oxo-butyl)phthalazin-1-one] | 2090
3 | N#Cc1cc2[nH]c(Cc3nn(CC(=O)N4CCOCC4)c(=O)c4ccccc34)nc2c(Cl)c1OCC(F)F [Compound 53, 7-chloro-6-(2,2-difluoroethoxy)-2-[[3-(2-morpholino-2-oxo-ethyl)-4-oxo-phthalazin-1-yl]methyl]-3H-benzimidazole-5-carbonitrile] | 2360
4 | CCOc1ccc2nn(Cc3nn(CC(=O)O)c(=O)c4ccccc34)cc2c1Cl [Compound 254, 2-[4-[(4-chloro-5-ethoxy-indazol-2-yl)methyl]-1-oxo-phthalazin-2-yl]acetic acid] | ≥ 19900
5 | CCOc1ccc2cn(Cc3nn(CC(=O)O)c(=O)c4ccccc34)nc2c1Cl [compound 22, 2-[4-[(7-chloro-6-ethoxy-indazol-2-yl)methyl]-1-oxo-phthalazin-2-yl]acetic acid] | ≥ 19900

Compounds with a lower EC50, results first:

Row | EC50 [nM] | Compound
6 | 98.4 | O=C(Cn1nc(Cc2nc3cc(OCC(F)F)c(Cl)cc3[nH]2)c2c(C3CC3)cccc2c1=O)N1CCOCC1 [Compound 48, 4-[[6-chloro-5-(2,2-difluoroethoxy)-1H-benzimidazol-2-yl]methyl]-5-cyclopropyl-2-(2-morpholino-2-oxo-ethyl)phthalazin-1-one]
7 | 45 | CCOc1cc2[nH]c(Cc3nn(CC(=O)O)c(=O)c4ccccc34)nc2cc1C#N [Compound 138, 2-[4-[(5-cyano-6-ethoxy-1H-benzimidazol-2-yl)methyl]-1-oxo-phthalazin-2-yl]acetic acid]
8 | 388 | N#Cc1cc2[nH]c(Cc3nn(CC(=O)N4CCN(CCO)CC4)c(=O)c4ccccc34)nc2cc1OCC(F)F [Compound 225, 6-(2,2-difluoroethoxy)-2-[[3-[2-[4-(2-hydroxyethyl)piperazin-1-yl]-2-oxo-ethyl]-4-oxo-phthalazin-1-yl]methyl]-3H-benzimidazole-5-carbonitrile]
9 | 89.6 | CS(=O)(=O)NC(=O)Cn1nc(Cc2nc3cc(OCC(F)F)c(F)cc3[nH]2)c2ccccc2c1=O [Compound 248, 2-[4-[[5-(2,2-difluoroethoxy)-6-fluoro-1H-benzimidazol-2-yl]methyl]-1-oxo-phthalazin-2-yl]-N-methylsulfonyl-acetamide]
10 | 10.2 | CS(=O)(=O)NC(=O)Cn1nc(Cc2nc3cc(OCC4(C#N)CC4)c(Cl)cc3[nH]2)c2ccccc2c1=O [Compound 249, 2-[4-[[6-chloro-5-[(1-cyanocyclopropyl)methoxy]-1H-benzimidazol-2-yl]methyl]-1-oxo-phthalazin-2-yl]-N-methylsulfonyl-acetamide]
11 | 9.39 | CC1(COc2cc3nc(Cc4nn(CC(=O)NS(C)(=O)=O)c(=O)c5ccccc45)[nH]c3cc2Cl)CC1 [Compound 250, 2-[4-[[6-chloro-5-[(1-methylcyclopropyl)methoxy]-1H-benzimidazol-2-yl]methyl]-1-oxo-phthalazin-2-yl]-N-methylsulfonyl-acetamide]
